This note sets out measurements from PMC5976239 (Journal of medicinal chemistry, 2017).

What is called MIC is the lowest concentration found to suppress growth.

Values after ≈ are worked out from the molar mass of the structure shown. Where only a bound is given, the exact number is not on record here.

Series [1] concerns C. albicans ATCC 64124 (strain B) biofilms. Description: Biofilm assay.
The next series deals with A549. In words: In vitro cytotoxicity assay. The series is classed as cell-based. The settings on record: 7.8 µg/mL, 24 h.
The test system of series [2] is C. parapsilosis ATCC 22019 (strain J). Description: Time-kill assay. The settings on record: 24 h, at up to 8× MIC. The format is cell-based, Candida parapsilosis.
The next series deals with BEAS-2B. In words: In vitro cytotoxicity assay. The series is classed as cell-based. The settings on record: 7.8 µg/mL, 24 h.
The next series relates to HEK-293. Description: In vitro cytotoxicity assay. The format is cell-based. The settings on record: 7.8 µg/mL, 24 h.
Another series is described as follows: Hemolytic activity assay. The format is cell-based. The settings on record: mouse, murine red blood cells (mRBCs).
In series [3] the test system is C. glabrata ATCC 2001 (strain H). In words: Time-kill assay. The settings on record: 24 h, compound 22 at 4× MIC, VOR at 1× and 4× MIC. The series is classed as cell-based, Candida glabrata.
The subject of series [4] is Candida albicans ATCC 10231 (A). In words: MIC determination in the presence and absence of FBS. The series is classed as cell-based. The settings on record: strains A, J, and L; +10% FBS versus no FBS.
The subject of series [5] is C. albicans ATCC MYA-1003(R) (G). In words: MIC determination by in vitro antifungal assay. The series is classed as cell-based. The settings on record: Candida albicans, 48 h, read-out: MIC (MIC-2).
Series [6] relates to C. albicans ATCC 64124(R) (B). Description: MIC determination by in vitro antifungal assay. The settings on record: Candida albicans, ATCC64124, 48 h, read-out: MIC (MIC-2). The format is cell-based.
In series [7] the test system is C. albicans ATCC 10231 (strain A). In words: Time-kill assay. The settings on record: 24 h, compound 20 at 4× MIC, VOR at 1× and 4× MIC. The series is classed as cell-based, Candida albicans.
Series [8] relates to C. albicans ATCC MYA-1237(R) (F). In words: MIC determination by in vitro antifungal assay. The settings on record: Candida albicans, 48 h, read-out: MIC (MIC-2). The series is classed as cell-based.
The test system of series [9] is C. albicans ATCC MYA-2876(S) (C). In words: MIC determination by in vitro antifungal assay. The settings on record: Candida albicans, 48 h, read-out: MIC (MIC-2). The series is classed as cell-based.
Series [10] deals with C. albicans ATCC MYA-2310(S) (E). Description: MIC determination by in vitro antifungal assay. The series is classed as cell-based. The settings on record: Candida albicans, 48 h, read-out: MIC (MIC-2).
In series [11] the test system is C. albicans ATCC 90819(R) (D). In words: MIC determination by in vitro antifungal assay. The series is classed as cell-based. The settings on record: Candida albicans, ATCC90819, 48 h, read-out: MIC (MIC-2).

In the case of `CCCCCCCCCCCCN1CCN(CC(O)(Cn2cncn2)c2ccc(F)cc2F)CC1` (stereo not shown) [Compound 22, 2-(2,4-Difluorophenyl)-1-(1H-1,2,4-triazol-1-yl)-3-(4-dodecylpiperazine)propan-2-ol], the “increase in MIC in biofilms (SMIC50 and SMIC80 versus MIC in liquid cultures)” value in series [1] is reported as 1–2 fold. Besides, the cell survival result with A549, with BEAS-2B and in the series on HEK-293 was “less than 40%” throughout. Moreover, the “fungistatic or fungicidal activity (time-kill)” value in series [2] was “fungistatic”; in series [3] it was “fungicidal”. The compound also displayed a hemolysis at 60 min, 7.8 µg/mL in the series “Hemolytic activity assay” greater than 50%. Moreover, the “antifungal activity in the presence of FBS (in words)” value in series [4] is recorded as “retained their full antifungal activity”.

For the compound `C[C@@H](c1ncncc1F)[C@](O)(Cn1cncn1)c1ccc(F)cc1F` [VOR, voriconazole, reference compound], the minimal inhibitory concentration (MIC) in series [5] was 1.95 µg/mL (≈ 5.58 µM); in series [6] it was 3.9 µg/mL (≈ 11.2 µM); in series [8], 7.8 µg/mL (≈ 22.3 µM); in series [9], 1.95 µg/mL (≈ 5.58 µM); in series [10] it was 0.975 µg/mL (≈ 2.79 µM); in series [11], 1.95 µg/mL (≈ 5.58 µM). The “fungistatic or fungicidal activity (time-kill)” value in series [7] and in series [3] was “fungistatic” throughout.
